These results are taken from patent US20250222116A1, “PARP-1 DEGRADATION AGENT AND USE THEREOF” (XIZANG HAISCO PHARMACEUTICAL CO., LTD., priority 2021, published 2025).

The subject of data set [1] is Human breast cancer MDA-MB-436 cells. Put plainly: Mouse MDA-MB-436 subcutaneous in vivo transplanted tumor model. To be noted: for TGI: after 28 days of administration. How it is done:
Human breast cancer MDA-MB-436 cells were placed in Leibovitz's L-15 medium (supplemented with 10 μg/mL insulin, 16 μg/mL glutathione, 10% fetal bovine serum and 1% penicillin-streptomycin solution) and cultured at 37° C. Conventional digestion treatment with trypsin was performed twice a week for passage. When the cell saturation was 80%-90%, and the number reached the requirement, the cells were harvested, counted, and inoculated. BALB/c nude mice (from Beijing Vital River Laboratory Animal Technology Co., Ltd.) were subcutaneously inoculated with 0.2 mL (10×10^6) of MDA-MB-436 cells (plus matrigel, with the volume ratio of 1:1) on the right back. When the average tumor volume reached about 180 mm^3, grouping and administration were performed (marked as Day 0). The solvent group was given 5% DMSO, 30% PEG400 and 65% of 20% sulfobutyl-β-cyclodextrin solution, and the administration group was given 1 or 10 mg/kg compound 10. The administration frequency was once a day, the administration cycle was 29 days, and the drug withdrawal observation period was set to 14 days. After grouping, the tumor diameter was measured twice a week with a vernier caliper. The formula for calculating the tumor volume was: V=0.5×a×b^2, where a and b represented the long and short diameters of the tumor, respectively. […] The tumor growth curve and the animal body weight change curve were as shown in FIG. 1 and FIG. 2, respectively.

For data set [2], the target named is T1, PARP2 (Homo sapiens (Human), UniProt Q9UGN5). Put plainly: PARP2 enzyme activity inhibition (chemiluminescence kit). In kind it is biochemical. The procedure:
PARP1, PARP2 and PARP7 chemical […] detection kits were all purchased from BPS Bioscience. The histone solution in the kit was diluted 5× with 1×PBS, and 25 μL of the diluted histone solution was added to a microwell plate and incubated overnight at 4° C. After the incubation was completed, the plate was washed three times with PBST (0.05% Tween-20). 25 μL of a blocking solution was added to the microwell plate and incubated at 25° C. for 90 minutes. After the incubation was completed, the plate was washed three times with PBST. 2.5 μL of compounds at different concentrations diluted in test buffer and 5 μL of 2.5× substrate mixed solution were added to the microwell plate. PARP1, PARP2 and PARP7 enzymes were diluted to 0.33, 0.23 and 5.00 ng/μL, respectively, 5 μL of the diluent was added to the microwell plate, and the reaction system was incubated at 25° C. for 60 minutes. After the incubation was completed, the plate was washed three times with PBST. […] ELISA ECL substrate A and substrate B were mixed at a ratio of 1:1 (v/v), 25 μL of the mixture was added to the microwell plate, and the chemiluminescence value was read using a BMG microplate reader.
Curve fitting was performed by four parameters (log(inhibitor) vs. response−Variable slope) using GraphPad Prism software, and the IC50 value was calculated.

Data set [3] is described as follows: Pharmacokinetic test in mice. The format is in vivo, ICR mice. How it is done: 8.1 Experimental animals: male ICR mice, 20 to 25 g, 18 mice/compound, purchased from Chengdu Ddossy Experimental Animals Co., Ltd.
8.2 Experimental design: on the day of the experiment, 36 ICR mice were randomly grouped according to their body weights. The animals were fasted with water available for 12 to 14 h one day before the administration, and were fed 4 h after the administration.
Before and after the administration, 0.06 mL of blood was taken from the orbit of the animals under isoflurane anesthesia and placed in an EDTAK2 centrifuge tube. The blood was centrifuged at 5000 rpm and 4° C. for 10 min to collect plasma. The blood collection time points for the intravenous group and intragastric administration group were: 0 min, 5 min, 15 min, 30 min, 1 h, 2 h, 4 h, 6 h, 8 h, and 24 h. Before analysis and detection, all samples were stored at −80° C. The samples were analyzed quantitatively by LC-MS/MS.

The target of data set [4] is T1, PARP2. In words: PARP2 protein expression level in MDA-MB-231 cells. In kind it is cell-based. How it is done: MDA-MB-231 cells were placed in a complete DMEM medium (supplemented with 10% FBS and 1% penicillin-streptomycin solution) and cultured at 37° C. and 5% CO2. The cells in the logarithmic growth phase were collected, the cell density was adjusted to 5×10^5 cells/well with the culture medium, and the cells were added to a 6-well cell culture plate at a volume of 1 mL/well, and cultured overnight in a 37° C., 5% CO2 incubator. On day 2, the compound to be tested was prepared to 2-fold the final concentration, 1 mL of the compounds at different concentrations were added to administration wells and a medium containing 0.2% DMSO was added to control wells, and the plate was incubated for 24 hours at 37° C. and 5% CO2. […] The supernatant was collected and the protein content was determined using the BCA method. The protein sample to be tested was diluted to 2 mg/mL, PARP2 was detected using a fully automated protein expression quantitative analyzer (ProteinSimple), and the internal reference protein was 3-actin (both antibodies were from CST). The software (Compass for SW) of the fully automated protein expression quantitative analyzer was used to process the raw data and calculate the peak area and the PARP2 expression rate relative to the control group. DC50 values were calculated using a four-parameter non-linear fitting model in Graphpad 8.3.0 software.

Where [5] appears, read: male, ICR, mouse, iv, i.v. 2.5 mg/kg, plasma.

Usually IC50 stands for the concentration that gives 50% inhibition. A higher IC50 goes with weaker potency. A word on the AUC(0-t): it is the area under the concentration-time curve up to a stated or last time point. The low end stands for low exposure, the high end for high exposure. One may read the clearance as the rate of elimination divided by the concentration. A low value points to a low capacity for elimination.

T1 sequence (Q9UGN5 whole entry): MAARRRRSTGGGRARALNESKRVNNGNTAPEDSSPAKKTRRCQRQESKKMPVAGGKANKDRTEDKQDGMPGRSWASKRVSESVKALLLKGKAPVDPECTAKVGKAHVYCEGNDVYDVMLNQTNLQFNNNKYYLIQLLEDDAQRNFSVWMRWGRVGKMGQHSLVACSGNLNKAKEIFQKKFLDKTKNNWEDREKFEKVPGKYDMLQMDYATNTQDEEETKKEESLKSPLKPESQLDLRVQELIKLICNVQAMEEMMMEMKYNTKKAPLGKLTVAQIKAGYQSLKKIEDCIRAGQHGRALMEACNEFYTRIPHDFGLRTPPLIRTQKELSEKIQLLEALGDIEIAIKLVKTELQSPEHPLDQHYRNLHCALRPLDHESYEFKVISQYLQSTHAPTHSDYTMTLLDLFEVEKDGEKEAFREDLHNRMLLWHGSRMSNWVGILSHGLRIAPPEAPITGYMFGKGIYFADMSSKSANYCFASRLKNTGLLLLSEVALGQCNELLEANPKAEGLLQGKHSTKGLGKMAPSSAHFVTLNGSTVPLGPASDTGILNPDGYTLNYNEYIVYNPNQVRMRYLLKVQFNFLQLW

In the case of `CCc1cc2ncc(CN3CCN(c4ccc(C(=O)NC5CCN(c6ccc7c(c6)C(=O)N(C6CCC(=O)NC6=O)C7=O)CC5)nc4)CC3)cc2[nH]c1=O` (stereo not shown) [Compound 10, N-(1-(2-(2,6-dioxopiperidin-3-yl)-1,3-dioxoisoindolin-5-yl)piperidin-4-yl)-5-(4-((7-ethyl-6-oxo-5,6-dihydro-1,5-naphthyridin-3-yl)methyl)piperazin-1-yl)picolinamide], the “tumor growth after drug withdrawal” value in data set [1] (1 mg/kg group, 14 days withdrawal observation) is “continued to grow”. Moreover, the values for the TGI in data set [1] (1 mg/kg once a day) and in data set [1] (10 mg/kg once a day) were 47.14% and 111%, respectively. Moreover, the “tumor volume after drug withdrawal” value in data set [1] (10 mg/kg group, 14 days withdrawal observation) was “consistently smaller than the tumor volume at the time of grouping”. Moreover, the “body weight of the animals” value in data set [1] (1 or 10 mg/kg once a day) is on record as “no significant decrease in the body weight”. Moreover, the “efficacy in inhibiting tumor growth” value in data set [1] (mouse MDA-MB-436 model) is “good efficacy in inhibiting tumor growth and inducing tumor regression”. The tolerability result in data set [1] (mouse MDA-MB-436 model) was “well tolerated”. The molecule also returned an IC50 at PARP2 [2] of 41 nM. Besides, in data set [3], the pharmacokinetic characteristics entry is recorded as “good pharmacokinetic characteristics”. This molecule also registered a F in data set [3] (i.g. 10 mg/kg) of 84.6%. Also, the AUC(0-t) in data set [3] (setting [5]) turned out to be 20600 ng·h/mL; in data set [3] (male, ICR, mouse, po, i.g. 10 mg/kg, plasma), 69800 ng·h/mL. In data set [3] (setting [5]), the clearance was found to be 2.02 mL/min/kg. Further, in data set [3] (male, ICR, mouse, iv, i.v. 2.5 mg/kg, plasma, read-out: Vdss), the Vd was found to be 0.358 L/kg. Besides, on PARP2 [4], the “PARP1 degradation selectivity over PARP2” value is “good PARP1 degradation selectivity”. On PARP2 [4] (24 hours), this molecule came in with a DC50 of more than 5 nM.
